Values quoted from earlier work in patent publication US10945968B2, “Memantine transdermal delivery systems” (Corium, Inc., priority 2016, dated 2021).

Settings: DRUGBANK Accession No. DB01043

C[C@]12CC3C[C@](C)(C1)C[C@@](N)(C3)C2 [Memantine, 3,5-dimethyladamantan-1-amine]
Log P reported range: 3.31-2.07
